One experiment addresses human IDO1 (Homo sapiens (Human), UniProt P14902). The experiment can be described thus: Inhibition activity on human IDO1 (enzyme assay, absorbance at 480 nm). Format: biochemical. Particulars: read-out: IC50 for inhibiting the activity of human IDO1. Here is the method: Assay for Determining the Inhibition Activity of the Present Compounds on Human IDO1
Human IDO1 activity was tested in vitro by the following method.
This method is used to determine the inhibition effect of the compounds of the present invention on the activity of human IDO1.
The human IDO1 gene was transferred to Pet30a plasmid by gene cloning, and then transferred to competent Escherichia coli Rosseta. The IDO1 gene was scaled-up by culturing in liquid LB (Luria-Bertani) medium [which was prepared per liter according to “Molecular Cloning A Laboratory Manual” (J. Sambrook, D. W. Russell)]). The bacteria were collected and lysed by ultrasonic waves. The purified IDO1 was obtained by eluting from a column.
For testing, 24 μL of enzyme (IDO1) was diluted 100 times with 50 mM KPB to 2400 μL. The concentration of the enzyme solution was 2.6 ng/μL. A 96 well reaction plate (AXYGEN, PCR-96-FLT-C) (hereinafter referred to as the “reaction plate”) was added with the enzyme solution at 24 μL/well. The blank well was added with 24 μL of KPB [Preparation of KPB buffer (50 mM): 6.805 g of KH2PO4 was weighed using an analytical balance, and placed into a 1000 mL beaker, deionized water was added with a measuring cylinder to 900 ml, the pH was adjusted to 6.5 by 1M KOH, then the mixture was introduced into a 1 L measuring cylinder, and water was added to 1 L. It was stored at 4° C.]. Then, 1 μL of a compound or DMSO was added into the corresponding wells in the reaction plate. Preparation of solution A: 200 μL of 500 mM L-sodium ascorbate were added with 1050 μL of KPB, then the mixture was mixed uniformly for 3 seconds at the maximum speed in a turbine mixer. Solution B: 100 μL of 10 mM tryptophan were added with 100 μL of 100,000 unit/mL catalase, 5 μL of 10 mM methylene blue, and 1050 μL of KPB successively, then the mixture was mixed uniformly for 3 seconds at the maximum speed in a turbine mixer. Then, 1200 μL of solution A and 1200 μL of solution B were taken and mixed uniformly for 3 seconds at the maximum speed in a turbine mixer. The mixture was added to the reaction plate at 24 μL/well. The reaction plate was placed in a plate centrifuge and centrifuged for 15 seconds at the maximum speed, so that the reaction liquids converged to the bottom. The reaction mixture was mixed uniformly for 30 seconds on a shaker, and incubated for 1 hour at 37° C. in a constant temperature incubator. In the reaction plate, 30% (W/V) trichloroacetic acid was added at 10 μL/well, then the mixture was incubated for 15 minutes at 65° C. in an incubator. The reaction plate was centrifuged in a centrifuge for 5 minutes at 4700 RPM at room temperature. […] Then, 2% (W/V) 4-(dimethylamino)benzaldehyde/glacial acetic acid solution was added at 40 μL/well, and the mixture was mixed uniformly for 1 minute on a shaker at the maximum speed. After incubation for 2 minutes at room temperature, the absorbance at 480 nm was read on a Synergy HT (BIOTEK) reader.
The inhibition activity of the compounds of the present invention on human IDO1 was tested by the assay described above.

In another experiment the target is human TDO (Homo sapiens (Human), UniProt P48775). The experiment can be described thus: Inhibition activity on human TDO (tryptophan 2,3-dioxygenase) (enzyme assay, absorbance at 480 nm). It is filed as biochemical. The conditions noted are these: read-out: IC50 for inhibiting the activity of human TDO. As for the experimental part:
Assay for Determining the Inhibition activity of the Compounds of the Present Invention on Human TDO (tryptophan 2,3-dioxygenase)
Human TDO activity was tested in vitro by the following method.
This method is used to determine the inhibition effect of the compounds of the present invention on the activity of human TDO.
Plasmids constructed with the human TDO gene were transferred to competent Escherichia coli Rosseta. The TDO gene was scaled-up by culturing in liquid LB (Luria-Bertani) medium [which was prepared per liter according to “Molecular Cloning A Laboratory Manual” (J. Sambrook, D. W. Russell)]). The bacteria were collected and lysed by ultrasonic waves. The purified TDO was obtained by eluting from a column.
For testing, 24 μL of enzyme (TDO) was diluted 100 times with 50 mM KPB to 2400 μL. The concentration of the enzyme solution was 2.6 ng/μL. A 96 well reaction plate (AXYGEN, PCR-96-FLT-C) (hereinafter referred to as the “reaction plate”) was added with the enzyme solution at 24 μL/well. The blank well was added with 24 μL of KPB [Preparation of KPB buffer (50 mM): 6.805 g of KH2PO4 was weighed using an analytical balance, and placed into a 1000 mL beaker, deionized water was added with a measuring cylinder to 900 mL, the pH was adjusted to 6.5 by 1M KOH, then the mixture was introduced into a 1 L measuring cylinder, and water was added to 1 L. It was stored at 4° C.]. Then, 1 μL of a compound or DMSO was added into the corresponding wells in the reaction plate. Preparation of solution A: 200 μL of 500 mM L-sodium ascorbate was added with 1050 μL of KPB, then the mixture was mixed uniformly for 3 seconds at the maximum speed in a turbine mixer. Solution B: 100 μL of 10 mM tryptophan was added with 100 μL of 100,000 unit/ml catalase, 5 μL of 10 mM methylene blue, and 1050 μL of KPB successively, then the mixture was mixed uniformly for 3 seconds at the maximum speed in a turbine mixer. Then, 1200 μL of solution A and 1200 μL of solution B were taken and mixed uniformly for 3 seconds at the maximum speed in a turbine mixer. The mixture was added to the reaction plate at 24 μL/well. The reaction plate was placed in a plate centrifuge and centrifuged for 15 seconds at the maximum speed, so that the reaction liquids converged to the bottom. The reaction mixture was mixed uniformly for 30 seconds on a shaker, and incubated for 1 hour at 37° C. in a constant temperature incubator. In the reaction plate, 30% (W/V) trichloroacetic acid was added at 10 μL/well, then the mixture was incubated for 15 minutes at 65° C. in a incubator. The reaction plate was centrifuged in a centrifuge for 5 minutes at 4700 RPM at room temperature. […] Then, 2% (W/V) 4-(dimethylamino)benzaldehyde/glacial acetic acid solution was added at 40 μL/well, then the mixture was mixed uniformly for 1 minute on a shaker at the maximum speed. After incubation for 2 minutes at room temperature, the absorbance at 480 nm was read on a Synergy HT Reader.
The inhibition activity of the compounds of the present invention on human TDO was tested by the assay described above.

The next experiment deals with IDO in HeLa cells (Homo sapiens (Human), UniProt P14902). Nature of the experiment: Inhibition activity on IDO in HeLa cells (INF-γ induced). Format: cell-based. The conditions noted are these: read-out: IC50 for inhibiting the activity of IDO in HeLa cells. As for the experimental part:
Assay for Determining the Inhibition Activity of the Present Compounds on IDO in HeLa Cells
IDO activity in HeLa cells was tested in vitro by the following method.
This method is used to determine the inhibition effect of the compounds of the present invention on the activity of IDO in HeLa cells. (Note: indoleamine 2,3-dioxygenase (IDO) is expressed in the HeLa cell line and induced by interferon gamma (INF-γ)).
The supernatant was removed, serum-free DMEM high glucose medium was added at 90 μL/well, then the compounds contained in the culture medium with INF-γ and tryptophan were added at 10 μL/well (the final concentrations: 10000, 1000, 100, 10, 1, 0.1 nM). […] Then, 80 μL of the supernate was transferred from the 96-well cell culture plate to a 96 well round-bottomed plate, then 30% (W/V) trichloroacetic acid was added at 16 μL/well, then the mixture was incubated for 25 minutes at 65° C. in an incubator. The reaction plate was centrifuged in a centrifuge for 5 minutes at 4700 RPM. Then, 50 μL of the supernatant was transferred from the reaction plate to a 96-well flat-bottomed transparent plate by a multi-channel pipette. Then, 2% (W/V) 4-(dimethylamino)benzaldehyde/glacial acetic acid solution was added at 50 μL/well, then the mixture was mixed uniformly for 1 minute on a shaker. After incubation for 2 minutes at room temperature, the absorbance at 480 nm was read on a Synergy HT Reader.
The inhibition activity of the compounds of the present invention on IDO in HeLa cells was tested by the assay described above.

Where [1] appears, read: purified recombinant human IDO1, 1 hour at 37° C.
The mark [2] stands for this setting: purified recombinant human TDO, 1 hour at 37° C.
Where [3] appears, read: HeLa cells, INF-γ and tryptophan, 48 hours.

Structures can show the parent of a compound that is named as a salt. Where two headings read alike, the source gives them in different places.

Chain of human TDO (P48775 whole entry): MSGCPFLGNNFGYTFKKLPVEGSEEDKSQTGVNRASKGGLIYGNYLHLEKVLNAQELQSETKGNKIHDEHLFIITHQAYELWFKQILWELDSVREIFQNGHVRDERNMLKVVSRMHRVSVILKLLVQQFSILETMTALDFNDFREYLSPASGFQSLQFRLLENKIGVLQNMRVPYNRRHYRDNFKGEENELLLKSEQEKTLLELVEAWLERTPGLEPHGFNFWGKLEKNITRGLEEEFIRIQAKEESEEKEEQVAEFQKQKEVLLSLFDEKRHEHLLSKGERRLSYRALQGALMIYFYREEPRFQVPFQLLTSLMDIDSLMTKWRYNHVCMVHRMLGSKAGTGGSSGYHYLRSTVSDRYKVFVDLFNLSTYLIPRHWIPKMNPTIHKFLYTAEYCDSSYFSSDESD
Chain of human IDO1 (P14902 whole entry): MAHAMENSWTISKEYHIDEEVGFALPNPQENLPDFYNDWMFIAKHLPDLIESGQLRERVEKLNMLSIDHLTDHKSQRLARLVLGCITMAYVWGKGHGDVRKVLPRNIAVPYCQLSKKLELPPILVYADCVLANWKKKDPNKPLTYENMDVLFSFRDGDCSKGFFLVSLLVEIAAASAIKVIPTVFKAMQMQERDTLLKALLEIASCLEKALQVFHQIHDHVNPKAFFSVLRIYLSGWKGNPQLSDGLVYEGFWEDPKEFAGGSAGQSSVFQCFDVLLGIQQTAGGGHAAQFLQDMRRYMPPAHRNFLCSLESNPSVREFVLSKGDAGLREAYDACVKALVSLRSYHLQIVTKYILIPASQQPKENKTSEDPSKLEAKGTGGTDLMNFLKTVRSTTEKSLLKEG
Chain of IDO in HeLa cells (P14902 whole entry): as above

Turning to `Fc1cccc2c1C(C1CCN(c3ccccc3)CC1)n1cncc1-2` (centres unmarked) [Example 1, 6-fluoro-5-(1-phenylpiperidin-4-yl)-5H-imidazo[5,1-a]isoindole trifluoroacetate], the results for the IC50 on human IDO1 and at human TDO were 0.0874 µM and 0.338 µM, respectively.

On to `Fc1ccc2c(c1)C(C1CCN(c3ccccc3)CC1)n1cncc1-2` (centres unmarked) [Example 2, 7-fluoro-5-(1-phenylpiperidin-4-yl)-5H-imidazo[5,1-a]isoindole trifluoroacetate], for which the IC50 (in general, the concentration that inhibits the measured activity by half) on human TDO turned out to be 0.215 µM.

Consider `N#Cc1ccc(N2CCC(C3c4c(F)cccc4-c4cncn43)CC2)cc1` (centres unmarked) [Example 5, 4-(4-(6-fluoro-5H-imidazo[5,1-a]isoindol-5-yl)piperidin-1-yl)benzonitrile trifluoroacetate], for which the IC50 is 0.0812 µM at human IDO1, 0.394 µM at human TDO and 0.353 µM at IDO in HeLa cells.

Regarding `NC(=O)c1ccc(N2CCC(C3c4c(F)cccc4-c4cncn43)CC2)cc1` (centres unmarked) [Example 6, 4-(4-(6-fluoro-5H-imidazo[5,1-a]isoindol-5-yl)piperidin-1-yl)benzamide trifluoroacetate], on human TDO, the IC50 was determined as 0.394 µM.

As for `Fc1cccc2c1C(C1CCN(c3ncc(-c4cnn(C5CCOCC5)c4)cn3)CC1)n1cncc1-2` (centres unmarked) [Example 18, 6-fluoro-5-(1-(5-(1-(tetrahydro-2H-pyran-4-yl)-1H-pyrazol-4-yl)pyrimidin-2-yl)piperidin-4-yl)-5H-imidazo[5,1-a]isoindole], the values for the IC50 at human IDO1 (setting [1]), at human TDO (setting [2]) and on IDO in HeLa cells (setting [3]) were 0.034 µM, 0.361 µM and 0.198 µM, respectively.

`Fc1cccc2c1C(C1CCN(c3ncc(-c4ccccc4)s3)CC1)n1cncc1-2` (centres unmarked) [Example 23, 2-(4-(6-fluoro-5H-imidazo[5,1-a]isoindol-5-yl)piperidin-1-yl)-5-phenylthiazole trifluoroacetate]: the results for the IC50 at human IDO1 (setting [1]), at human TDO (setting [2]) and at IDO in HeLa cells (setting [3]) were 0.0482 µM, 0.399 µM and 0.439 µM, respectively.

Take `Fc1cccc2c1C(C1CCN(c3ccccc3)C1)n1cncc1-2` (centres unmarked) [Example 25, 6-fluoro-5-(1-phenylpyrrolidin-3-yl)-5H-imidazo[5,1-a]isoindole trifluoroacetate]: the IC50 at human TDO came to 0.257 µM.

As for `OC[C@@H](O)Cn1cc(-c2ccc(N3CCC(C4c5c(F)cccc5-c5cncn54)CC3)cc2)cn1` (stereo partly drawn) [Example 29, (2S)-3-(4-(4-(4-(6-fluoro-5H-imidazo[5,1-a]isoindol-5-yl)piperidin-1-yl)phenyl)-1H-pyrazol-1-yl)propane-1,2-diol], the IC50 on human IDO1 (setting [1]) was 0.0359 µM; on human TDO (setting [2]), 0.22 µM; at IDO in HeLa cells (setting [3]), 0.292 µM.

For `OC[C@H](O)Cn1cc(-c2ccc(N3CCC(C4c5c(F)cccc5-c5cncn54)CC3)cc2)cn1` (stereo partly drawn) [Example 30, (2R)-3-(4-(4-(4-(6-fluoro-5H-imidazo[5,1-a]isoindol-5-yl)piperidin-1-yl)phenyl)-1H-pyrazol-1-yl)propane-1,2-diol trifluoroacetate], the IC50 amounted to 0.0587 µM on human IDO1 (setting [1]), 0.319 µM on human TDO (setting [2]) and 0.334 µM on IDO in HeLa cells (setting [3]).

For `Nc1cc(-c2nnc(N3CCC(C4c5c(F)cccc5-c5cncn54)CC3)s2)ccn1` (centres unmarked) [Example 36, 4-(5-(4-(6-fluoro-5H-imidazo[5,1-a]isoindol-5-yl)piperidin-1-yl)-1,3,4-thiadiazol-2-yl)pyridin-2-amine trifluoroacetate], the IC50 on human IDO1 (setting [1]) was determined as 0.0106 µM; on human TDO (setting [2]), 0.104 µM; on IDO in HeLa cells (setting [3]), 0.0278 µM.

With `CS(=O)(=O)N1CCC(Oc2ccc(N3CCC(C4c5c(F)cccc5-c5cncn54)CC3)cc2)CC1` (centres unmarked) [Example 39, 6-fluoro-5-(1-(4-((1-(methylsulfonyl)piperidin-4-yl)oxy)phenyl)piperidin-4-yl)-5H-imidazo[5,1-a]isoindole], the IC50 at human IDO1 (setting [1]) came to 0.0155 µM; at human TDO (setting [2]), 0.243 µM; on IDO in HeLa cells (setting [3]), 0.198 µM.

For the compound `N#Cc1ccc(N2CCC(C3c4c(F)cccc4-c4cncn43)CC2)cc1F` (centres unmarked) [Example 45, 2-fluoro-4-(4-(6-fluoro-5H-imidazo[5,1-a]isoindol-5-yl)piperidin-1-yl)benzonitrile], the values for the IC50 on human IDO1 (setting [1]), on human TDO (setting [2]) and at IDO in HeLa cells (setting [3]) were 0.00884 µM, 0.234 µM and 0.231 µM, respectively.

Consider `Fc1ccc(N2CCC(C3c4c(F)cccc4-c4cncn43)CC2)cc1F` (centres unmarked) [Example 46, 5-(1-(3,4-difluorophenyl)piperidin-4-yl)-6-fluoro-5H-imidazo[5,1-a]isoindole], for which the IC50 worked out at 0.00668 µM at human IDO1, 0.0689 µM at human TDO and 0.0691 µM at IDO in HeLa cells (setting [3]).
